Assay results reported in the supplement of paper PMC12463676, “Small-molecule dissolution of stress granules by redox modulation benefits ALS models” (Nature Chemical Biology, 2025).

Experiments:
potassium arsenate = compound: O=[As]([O-])(O)O.[K+] [potassium arsenate]; test: thermal stability z-score vs DMSO; higher = more thermally stabilized by treatment; conditions: HeLa; arsenate concentration 1 mM
Experimental: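 Cellular thermal proteome profiling in HeLa cells treated with 1 mM arsenate for 1 h (DMSO pretreatment), heated to ten temperatures (37-66.3 °C). Soluble protein was quantified by TMT mass spectrometry relative to DMSO controls; the thermal stability score was transformed to a z-score; mean of n = 3 experiments.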

lipoamide = compound: NC(=O)CCCCC1CCSS1 [lipoamide]; test: as above; conditions: HeLa, lipoamide concentration 100 µM
Experimental: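 Cellular thermal proteome profiling in HeLa cells. Cells were treated with 100 µM lipoamide for 1 h, with or without 1 mM arsenate for a further 1 h, then heated to ten temperatures (37-66.3 °C), and soluble protein was quantified by TMT mass spectrometry relative to 0.1% DMSO controls. The thermal stability score (sum of log2 fold changes minus the abundance score) was transformed to a z-score; mean of n = 3 experiments.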

[1] = arsenate co-treatment: 1 mM arsenate 1 h
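Further: each temperature applied for 3 min, abundance score taken as mean log2 fold change at the two lowest temperatures, z-score obtained by mean subtraction and division by SD.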

Chain of UniProt P46108 (P46108 whole entry): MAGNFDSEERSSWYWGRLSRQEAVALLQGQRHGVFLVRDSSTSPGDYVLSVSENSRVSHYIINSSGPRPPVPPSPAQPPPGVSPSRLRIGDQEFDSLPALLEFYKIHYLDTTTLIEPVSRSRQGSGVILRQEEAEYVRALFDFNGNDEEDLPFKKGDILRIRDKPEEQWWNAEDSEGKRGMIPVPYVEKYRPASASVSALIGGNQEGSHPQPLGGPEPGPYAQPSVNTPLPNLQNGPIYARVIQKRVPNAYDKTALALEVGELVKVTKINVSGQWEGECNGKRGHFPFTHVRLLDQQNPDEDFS
Chain of UniProt Q9ULV4 (Q9ULV4 whole entry): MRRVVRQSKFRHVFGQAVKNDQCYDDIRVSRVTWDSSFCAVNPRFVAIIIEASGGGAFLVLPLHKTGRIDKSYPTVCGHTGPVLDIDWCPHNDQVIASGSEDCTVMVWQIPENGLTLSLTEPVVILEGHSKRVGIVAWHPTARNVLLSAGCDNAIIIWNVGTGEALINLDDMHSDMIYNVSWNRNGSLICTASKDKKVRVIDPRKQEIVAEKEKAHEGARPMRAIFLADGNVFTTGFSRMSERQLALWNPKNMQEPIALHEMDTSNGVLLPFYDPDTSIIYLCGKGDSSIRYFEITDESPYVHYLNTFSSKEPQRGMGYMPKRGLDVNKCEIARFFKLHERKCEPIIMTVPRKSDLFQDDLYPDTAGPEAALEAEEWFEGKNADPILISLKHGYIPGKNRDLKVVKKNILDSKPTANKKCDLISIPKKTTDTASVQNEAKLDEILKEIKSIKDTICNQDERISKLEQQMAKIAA
Chain of UniProt Q6UUV7 (Q6UUV7 whole entry): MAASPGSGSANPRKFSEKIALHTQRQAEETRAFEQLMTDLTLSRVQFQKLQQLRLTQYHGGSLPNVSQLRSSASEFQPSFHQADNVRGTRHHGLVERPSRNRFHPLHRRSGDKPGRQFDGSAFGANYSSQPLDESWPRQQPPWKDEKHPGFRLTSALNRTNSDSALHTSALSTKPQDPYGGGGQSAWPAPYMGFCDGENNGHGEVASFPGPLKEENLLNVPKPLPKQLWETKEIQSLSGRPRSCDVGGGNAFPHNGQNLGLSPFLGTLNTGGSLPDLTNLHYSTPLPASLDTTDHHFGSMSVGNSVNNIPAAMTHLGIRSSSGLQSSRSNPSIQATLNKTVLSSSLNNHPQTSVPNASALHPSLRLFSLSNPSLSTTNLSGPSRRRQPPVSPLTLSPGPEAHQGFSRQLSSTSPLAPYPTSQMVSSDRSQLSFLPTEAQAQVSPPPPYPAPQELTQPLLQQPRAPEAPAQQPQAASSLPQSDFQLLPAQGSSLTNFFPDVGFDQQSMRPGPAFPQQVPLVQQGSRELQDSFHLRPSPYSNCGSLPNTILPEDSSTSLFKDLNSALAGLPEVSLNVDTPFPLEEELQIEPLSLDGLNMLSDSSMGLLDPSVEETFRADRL
Chain of UniProt Q5TA45 (Q5TA45 whole entry): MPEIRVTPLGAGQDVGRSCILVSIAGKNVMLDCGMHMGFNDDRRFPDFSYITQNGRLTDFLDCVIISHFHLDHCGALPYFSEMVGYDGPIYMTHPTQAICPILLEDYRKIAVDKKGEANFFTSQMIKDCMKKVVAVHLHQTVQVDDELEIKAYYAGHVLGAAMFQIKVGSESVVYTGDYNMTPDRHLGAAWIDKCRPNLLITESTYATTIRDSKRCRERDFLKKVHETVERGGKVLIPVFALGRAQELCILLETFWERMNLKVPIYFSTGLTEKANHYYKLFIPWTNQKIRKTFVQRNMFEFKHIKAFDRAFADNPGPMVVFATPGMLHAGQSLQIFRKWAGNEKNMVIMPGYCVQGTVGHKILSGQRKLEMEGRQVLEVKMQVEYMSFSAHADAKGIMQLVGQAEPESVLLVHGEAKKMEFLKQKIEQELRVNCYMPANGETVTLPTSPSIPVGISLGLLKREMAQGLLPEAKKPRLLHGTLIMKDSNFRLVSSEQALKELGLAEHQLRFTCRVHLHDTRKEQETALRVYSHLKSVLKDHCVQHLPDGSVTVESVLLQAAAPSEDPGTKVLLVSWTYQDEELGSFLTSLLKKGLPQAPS
Chain of UniProt Q9UI42 (Q9UI42 whole entry): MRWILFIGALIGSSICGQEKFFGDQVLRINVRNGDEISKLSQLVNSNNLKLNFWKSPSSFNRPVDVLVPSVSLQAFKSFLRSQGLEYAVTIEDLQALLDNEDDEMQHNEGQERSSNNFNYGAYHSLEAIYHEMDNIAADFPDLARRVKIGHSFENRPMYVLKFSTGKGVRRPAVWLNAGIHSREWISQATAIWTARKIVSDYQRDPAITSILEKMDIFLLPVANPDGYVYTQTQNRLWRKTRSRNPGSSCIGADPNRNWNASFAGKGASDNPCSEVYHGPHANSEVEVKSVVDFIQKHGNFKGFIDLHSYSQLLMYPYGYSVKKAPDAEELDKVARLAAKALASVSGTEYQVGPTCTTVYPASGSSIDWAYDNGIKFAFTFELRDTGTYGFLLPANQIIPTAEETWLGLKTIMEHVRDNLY
Chain of UniProt Q99829 (Q99829 whole entry): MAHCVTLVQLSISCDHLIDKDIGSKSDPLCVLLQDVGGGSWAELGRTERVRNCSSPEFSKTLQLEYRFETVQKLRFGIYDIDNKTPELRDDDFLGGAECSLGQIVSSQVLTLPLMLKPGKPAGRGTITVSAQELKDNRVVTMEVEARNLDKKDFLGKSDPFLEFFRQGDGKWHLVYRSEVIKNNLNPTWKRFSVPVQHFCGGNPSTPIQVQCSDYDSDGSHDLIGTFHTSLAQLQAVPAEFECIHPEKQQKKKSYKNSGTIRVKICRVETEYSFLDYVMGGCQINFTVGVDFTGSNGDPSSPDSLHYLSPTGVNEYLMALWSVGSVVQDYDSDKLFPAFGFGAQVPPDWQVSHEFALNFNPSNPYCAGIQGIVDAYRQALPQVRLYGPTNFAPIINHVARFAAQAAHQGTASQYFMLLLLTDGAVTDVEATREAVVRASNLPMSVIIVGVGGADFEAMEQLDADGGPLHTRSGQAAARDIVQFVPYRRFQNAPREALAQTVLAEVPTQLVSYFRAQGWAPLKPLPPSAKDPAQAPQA
Chain of UniProt Q6UXH1 (Q6UXH1 whole entry): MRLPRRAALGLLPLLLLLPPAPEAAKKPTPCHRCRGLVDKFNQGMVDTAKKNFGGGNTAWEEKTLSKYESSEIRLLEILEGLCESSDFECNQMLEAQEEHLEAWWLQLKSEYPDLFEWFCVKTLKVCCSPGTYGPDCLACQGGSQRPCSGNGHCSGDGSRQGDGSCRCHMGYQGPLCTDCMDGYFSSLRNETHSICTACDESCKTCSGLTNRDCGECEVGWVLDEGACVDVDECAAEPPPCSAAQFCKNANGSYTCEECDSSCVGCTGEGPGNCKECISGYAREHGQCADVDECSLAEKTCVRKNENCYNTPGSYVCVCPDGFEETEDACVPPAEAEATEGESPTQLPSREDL
Chain of UniProt P43155 (P43155 whole entry): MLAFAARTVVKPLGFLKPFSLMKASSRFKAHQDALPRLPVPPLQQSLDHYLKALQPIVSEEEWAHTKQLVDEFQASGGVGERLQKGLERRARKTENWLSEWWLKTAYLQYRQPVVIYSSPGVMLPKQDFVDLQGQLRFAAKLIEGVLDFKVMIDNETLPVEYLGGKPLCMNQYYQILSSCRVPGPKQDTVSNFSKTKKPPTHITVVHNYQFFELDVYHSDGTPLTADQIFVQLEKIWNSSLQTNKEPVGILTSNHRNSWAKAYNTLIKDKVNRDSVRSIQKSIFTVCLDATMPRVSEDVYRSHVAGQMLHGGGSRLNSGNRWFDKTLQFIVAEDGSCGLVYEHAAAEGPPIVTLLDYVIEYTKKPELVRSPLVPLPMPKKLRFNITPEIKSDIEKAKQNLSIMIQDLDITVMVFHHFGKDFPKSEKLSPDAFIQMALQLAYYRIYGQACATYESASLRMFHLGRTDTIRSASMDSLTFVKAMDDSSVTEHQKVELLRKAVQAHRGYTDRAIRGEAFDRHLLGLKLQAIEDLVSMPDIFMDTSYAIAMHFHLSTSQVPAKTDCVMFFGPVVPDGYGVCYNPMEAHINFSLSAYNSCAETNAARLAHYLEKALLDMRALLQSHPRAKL
Chain of UniProt Q8IUI8 (Q8IUI8 whole entry): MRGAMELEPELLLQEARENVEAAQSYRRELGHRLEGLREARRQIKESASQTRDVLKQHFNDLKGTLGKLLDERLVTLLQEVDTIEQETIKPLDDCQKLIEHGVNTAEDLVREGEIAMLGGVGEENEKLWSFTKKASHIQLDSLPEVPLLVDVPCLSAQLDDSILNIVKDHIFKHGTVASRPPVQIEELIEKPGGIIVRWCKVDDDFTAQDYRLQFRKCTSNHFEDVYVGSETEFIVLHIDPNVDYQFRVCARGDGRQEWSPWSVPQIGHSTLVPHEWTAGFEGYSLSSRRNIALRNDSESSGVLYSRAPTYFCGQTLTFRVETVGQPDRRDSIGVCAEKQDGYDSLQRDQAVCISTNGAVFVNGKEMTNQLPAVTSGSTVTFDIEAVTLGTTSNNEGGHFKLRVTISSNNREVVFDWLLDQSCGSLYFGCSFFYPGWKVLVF
Chain of UniProt Q5TA50 (Q5TA50 whole entry): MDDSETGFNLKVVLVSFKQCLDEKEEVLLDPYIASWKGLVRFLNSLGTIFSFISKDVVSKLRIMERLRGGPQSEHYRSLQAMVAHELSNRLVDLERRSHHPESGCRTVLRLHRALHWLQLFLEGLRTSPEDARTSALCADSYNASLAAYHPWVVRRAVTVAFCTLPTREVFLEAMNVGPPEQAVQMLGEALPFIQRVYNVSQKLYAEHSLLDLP
Chain of UniProt P50238 (P50238 whole entry): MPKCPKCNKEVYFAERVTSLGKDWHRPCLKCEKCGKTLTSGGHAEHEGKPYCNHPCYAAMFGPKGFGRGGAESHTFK
Chain of UniProt Q14019 (Q14019 whole entry): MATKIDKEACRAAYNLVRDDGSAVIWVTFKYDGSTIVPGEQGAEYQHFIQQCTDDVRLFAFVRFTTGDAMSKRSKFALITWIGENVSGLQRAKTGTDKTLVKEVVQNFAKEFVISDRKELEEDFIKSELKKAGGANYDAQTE
Chain of UniProt P24311 (P24311 whole entry): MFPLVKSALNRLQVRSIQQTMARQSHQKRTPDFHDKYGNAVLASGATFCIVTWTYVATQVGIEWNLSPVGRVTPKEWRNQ

| Target | thermal stability z-score (potassium arsenate) | thermal stability z-score (lipoamide; [1]) | thermal stability z-score (lipoamide; arsenate co-treatment: none) |
| --- | --- | --- | --- |
| COQ5 (UniProt Q5HYK3) | 1.52 | 0.471 | 0.639 |
| COQ6 (UniProt Q9Y2Z9) | -2.7 | 1.2 | -0.131 |
| COQ7 (UniProt Q99807) | 0.227 | -0.0244 | 0.331 |
| COQ9 (UniProt O75208) | 1.61 | -0.364 | -0.531 |
| CORO1B (UniProt Q9BR76) | -0.66 | -0.396 | -0.129 |
| CORO1C (UniProt Q9ULV4) | 1.13 | -1.05 | -0.614 |
| CORO7 (UniProt P57737) | -0.177 | 0.188 | 0.174 |
| COTL1 (UniProt Q14019) | 0.699 | 0.575 | 1.02 |
| COX4I1 (UniProt P13073) | 0.514 | 0.239 | 0.296 |
| COX5A (UniProt P20674) | 1.36 | 2.24 | 1.82 |
| COX5B (UniProt P10606) | -0.926 | 1.26 | 1.21 |
| COX6B1 (UniProt P14854) | -0.234 | 0.898 | 0.644 |
| COX6C (UniProt P09669) | 0.836 | 0.703 | 0.431 |
| COX7A2L (UniProt O14548) | -0.221 | 0.761 | 0.522 |
| COX7B (UniProt P24311) | -0.0702 | -0.0929 | -0.0319 |
| COX11 (UniProt Q9Y6N1) | 0.0514 | 0.0437 | -0.0617 |
| COX15 (UniProt Q7KZN9) | 0.257 | -0.206 | -0.206 |
| COX17 (UniProt Q14061) | -2.23 | -0.762 | -2.24 |
| COX19 (UniProt Q49B96) | 0.412 | 0.659 | 0.945 |
| COX20 (UniProt Q5RI15) | -0.19 | -0.11 | -0.155 |
| CPA4 (UniProt Q9UI42) | 0.188 | -0.883 | -0.642 |
| CPD (UniProt O75976) | 0.546 | -0.796 | -0.794 |
| CPLX1 (UniProt O14810) | -0.346 | 0.844 | 1.45 |
| CPM (UniProt P14384) | 0.405 | 0.0529 | -0.163 |
| CPNE1 (UniProt Q99829) | -0.934 | 0.0896 | 0.0907 |
| CPNE3 (UniProt O75131) | 0.283 | 1.73 | 2.22 |
| CPNE8 (UniProt Q86YQ8) | -0.648 | 0.773 | 1.11 |
| CPOX (UniProt P36551) | -0.525 | 0.526 | -0.338 |

| Target | thermal stability z-score (potassium arsenate) | thermal stability z-score (lipoamide; [1]) | thermal stability z-score (lipoamide; arsenate co-treatment: none) |
| --- | --- | --- | --- |
| CPPED1 (UniProt Q9BRF8) | 0.792 | -0.0195 | 0.348 |
| CPS1 (UniProt P31327) | -1.39 | -0.756 | 0.095 |
| CPSF1 (UniProt Q10570) | -0.123 | 0.324 | 0.168 |
| CPSF2 (UniProt Q9P2I0) | -0.339 | -0.00974 | -0.136 |
| CPSF3 (UniProt Q9UKF6) | -0.0903 | 0.15 | -0.0907 |
| CPSF3L (UniProt Q5TA45) | 0.178 | 0.622 | 0.702 |
| CPSF6 (UniProt Q16630) | 0.452 | 0.848 | 1.21 |
| CPSF7 (UniProt Q8N684) | -0.36 | 0.18 | 0.191 |
| CPT1A (UniProt P50416) | -0.161 | -0.189 | -0.268 |
| CPT2 (UniProt P23786) | 0.228 | -0.296 | 0.0116 |
| CPTP (UniProt Q5TA50) | 1.5 | 2.01 | 0.706 |
| CRABP2 (UniProt P29373) | 0.378 | 0.359 | 1.24 |
| CRAT (UniProt P43155) | 0.0734 | 0.0164 | 0.114 |
| CRBN (UniProt Q96SW2) | -0.0801 | 0.304 | -0.141 |
| CREBBP (UniProt Q92793) | -0.693 | 0.397 | -0.0649 |
| CRELD1 (UniProt Q96HD1) | -0.113 | -0.249 | -0.193 |
| CRELD2 (UniProt Q6UXH1) | -0.0409 | -6.65 | -6.33 |
| CRIM1 (UniProt Q9NZV1) | -2.04 | -2.84 | -1.95 |
| CRIP1 (UniProt P50238) | 1.18 | 1.49 | 1.68 |
| CRIP2 (UniProt P52943) | -0.637 | -0.0467 | 0.146 |
| CRK (UniProt P46108) | 1.2 | 0.951 | 0.233 |
| CRKL (UniProt P46109) | 0.656 | 0.0621 | 0.384 |
| CRLF3 (UniProt Q8IUI8) | 0.0579 | -0.236 | -0.971 |
| CRNKL1 (UniProt Q9BZJ0) | -0.00401 | 0.288 | 0.156 |
| CRTAP (UniProt O75718) | 0.92 | -3.99 | -3.27 |
| CRTC1 (UniProt Q6UUV9) | -0.151 | -0.063 | -0.202 |
| CRTC3 (UniProt Q6UUV7) | 0.1 | -0.316 | -0.025 |
